Reference: patent publication US10959992B2, “Methods of treatment of asthma and COPD” (Bridge Pharma, Inc., priority 2019, dated 2021)
Values after ≈ are worked out from the molar mass of the structure shown. Where two headings read alike, the source gives them in different places.

Assays:
[1] = Lung/plasma distribution of norketotifen in dogs; format: in vivo, Beagle dogs; settings: for Post-dose Lung Concentration / Post-dose Plasma Concentration / Kp: dog; for Post-dose Lung Concentration / Post-dose Plasma Concentration: oral 8.0 mg/kg/day NK-FB for four days; for Kp: female, Beagle, lung/plasma, 11.46 mg/kg/day
Procedure: One group (N=3) of female Beagle dogs (8 to 10 kg/24 to 28 months) were administered racemic norketotifen hydrogen fumarate (RS-NK-HF) 11.46 mg/kg/day for 4 consecutive days. (11.46 mg of NK-HF is equal to 8.0 mg of the free base (RS-NK-FB).
Plasma samples were collected daily on Days 2, 3 and 4. The last blood samples were taken four hours after dosing on Day 4. Lung and plasma concentrations of norketotifen were determined using a qualified LC-MS-MS analytical method. LLQ was <0.5 ng/ml. Immediately after blood collection on Day 4, all animals were euthanized with an overdose of pentobarbital, administered intravenously, followed by exsanguination. Lung tissue samples (approximately 1 g each) were collected from each animal from the left and right pulmonary lobes, samples were trimmed and dried of any access blood using absorbent paper, weighed and then kept in conical tubes frozen on dry ice and stored at −80° C. pending analysis. Six samples from each animal (3 samples per side) were analyzed.

[2] = tested on: Trichophyton interdigitale; experiment: Antimicrobial activity (MIC), Trichophyton interdigitale; format: cell-based; settings: Mold: Ti, MIC refers to lethal concentrations
sedation = settings: orally administered, humans; U.S. Pat. Nos. 9,138,431 and 9,345,697; cited from earlier work

In the case of `O=C1Cc2ccccc2C(=C2CCNCC2)c2ccsc21` (racemic) [norketotifen], the “Post-dose Lung Concentration” value ([1]; animal 001, Day 4) is reported as 23590 ng/g, the “Post-dose Plasma Concentration” value ([1]; animal 001, Day 4) is reported as 301 ng/mL and the “Post-dose Lung Concentration” value ([1]; animal 002, Day 4) is reported as 79546 ng/g. For the same compound, the “Post-dose Plasma Concentration” value ([1]; animal 002, Day 4) was 1651 ng/mL, the “Post-dose Lung Concentration” value ([1]; animal 003, Day 4) was 61093 ng/g and the “Post-dose Plasma Concentration” value ([1]; animal 003, Day 4) was 733 ng/mL. The Kp ([1]; oral, animal 001, Day 4, read-out: Lung / Plasma Ratio in Dogs) was 78.4, the Kp ([1]; oral, animal 002, Day 4, read-out: Lung / Plasma Ratio in Dogs) was 48.2 and the Kp ([1]; oral, animal 003, Day 4, read-out: Lung / Plasma Ratio in Dogs) was 83.3. For the same compound, the Kp ([1]; po, mean of three dogs, Day 4, once daily oral dosing, read-out: Lung / Plasma Ratio in Dogs, Mean ± SEM) was 70, the “Lung / Plasma Ratio in Dogs, Mean ± SEM” value ([1]; mean of three dogs, Day 4, once daily oral dosing, listed as NK) was 70.0 ± 11.0 and the MIC [2] was 500 µg/mL (≈ 1690 µM). The Sedative side effects (sedation) was “free from sedative side effects”.
